Data set [1] addresses T1, human VMAT2 (Homo sapiens, UniProt Q05940). Nature of the data set: cell-based. Particulars: for VMAT2 inhibitor strength (in words): short-term exposure, up to 100 μM; for Effect on FFN206 uptake / vesicular loading: tested at 0.01, 0.1, 1, 10 and 100 μM.
In data set [2] the target is T1, human VMAT2. The data set is described as follows: Real-time uptake of FFN206 with confocal microscopy in HEK+VMAT2 cells. In kind it is cell-based. Particulars: 20 μM FFN206; one-way ANOVA, p <0.0001 vs HEK+VMAT2.
For data set [3] the following is noted: 100 nM rotenone; after 48 hours; from mitochondrial complex I inhibition; cited from earlier work.

pIC50: −log10 of the molar value. Read-outs that look alike come from different tables or passages of the source.

T1 sequence (Q05940 whole entry): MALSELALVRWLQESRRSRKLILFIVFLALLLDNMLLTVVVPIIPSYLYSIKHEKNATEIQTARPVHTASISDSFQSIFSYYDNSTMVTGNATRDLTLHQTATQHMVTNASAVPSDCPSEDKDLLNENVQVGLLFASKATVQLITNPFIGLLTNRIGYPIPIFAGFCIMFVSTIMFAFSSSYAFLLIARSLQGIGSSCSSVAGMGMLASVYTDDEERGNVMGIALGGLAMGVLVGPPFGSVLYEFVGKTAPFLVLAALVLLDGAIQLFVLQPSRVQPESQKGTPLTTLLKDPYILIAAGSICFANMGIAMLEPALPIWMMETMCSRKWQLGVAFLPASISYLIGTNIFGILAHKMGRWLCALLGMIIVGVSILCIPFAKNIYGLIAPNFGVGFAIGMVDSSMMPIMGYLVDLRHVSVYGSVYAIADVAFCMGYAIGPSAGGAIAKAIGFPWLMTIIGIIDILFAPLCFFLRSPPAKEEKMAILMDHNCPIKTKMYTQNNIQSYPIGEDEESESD

For `O=S(=O)(O)C(F)(F)C(F)(F)C(F)(F)C(F)(F)C(F)(F)C(F)(F)C(F)(F)C(F)(F)F` [PFOS, perfluorooctanesulfonic acid], in data set [1] (HEK+VMAT2 cells), the “VMAT2 inhibitor strength (in words)” value is listed as “weak inhibitors of VMAT2” and the “Effect on FFN206 uptake / vesicular loading” value was “did not show impairment of vesicular loading”.

Turning to `CO/C1=C\C(C)=C\[C@@H](C)[C@@H](O)[C@@H](C)C/C(C)=C/C=C/[C@H](OC)[C@@H]([C@@H](C)[C@@H](O)[C@H](C)[C@@]2(O)C[C@@H](O)[C@H](C)[C@@H](C(C)C)O2)OC1=O` [bafilomycin, reference compound], the “Effect on FFN206 fluorescence” value in data set [1] (HEK+VMAT2 cells, 10 μM tetrabenazine, bafilomycin data not shown) is “depleted FFN206 fluorescence”. For the same compound, the “FFN206 fluorescence in final 20 seconds of 1000 seconds uptake vs HEK+VMAT2” value in data set [2] is on record as “decreased FFN206 fluorescence”.

In the case of `CCOP(=S)(OCC)Oc1nc(Cl)c(Cl)cc1Cl` [chlorpyrifos], in data set [1] (HEK+VMAT2 cells), the “Effect on FFN206 uptake / vesicular loading” value was “minor decrease in FFN206 uptake at the highest concentration”.

Take `CN[C@@H](C)Cc1ccccc1` [methamphetamine, reference compound]: the pIC50 in data set [1] is 5.62. For the same compound, the “Concentration showing essentially complete / total inhibition of VMAT2” value in data set [1] (HEK+VMAT2 cells, dose response, 1 μM FFN206) is at most 100 µM.

With `COC(=O)C(c1ccccc1)C1CCCCN1` (centres unmarked) [methylphenidate, reference compound], the pIC50 in data set [1] was 4.03.

With `C[n+]1ccc(-c2cc[n+](C)cc2)cc1` [paraquat], the pIC50 in data set [1] is 4.91.

Consider `C=C(C)[C@H]1Cc2c(ccc3c2O[C@@H]2COc4cc(OC)c(OC)cc4[C@@H]2C3=O)O1` [rotenone], for which the “Concentration at which a reduction in VMAT2 function was detected” value in data set [1] (HEK+VMAT2 cells, 90 minutes total exposure) was 100 µM. Besides, in data set [1] (HEK+VMAT2 cells), the “Effect on FFN206 uptake / vesicular loading” value is recorded as “minor decrease in FFN206 uptake at the highest concentration”. Moreover, the Cell death in data set [3] was 70–80%.

On to `COc1cc2c(cc1OC)C1CC(=O)C(CC(C)C)CN1CC2` (centres unmarked) [tetrabenazine, reference compound], for which, in data set [1], the “Concentration showing essentially complete / total inhibition of VMAT2” value was 1 µM and the “Effect on FFN206 fluorescence” value is listed as “almost total loss of FFN206 fluorescence”. The “FFN206 fluorescence in final 20 seconds of 1000 seconds uptake vs HEK+VMAT2” value in data set [2] was “significant differences”.

Regarding hexabromocyclododecane, in data set [1] (HEK+VMAT2 cells), the “VMAT2 inhibitor strength (in words)” value is given as “weak inhibitors of VMAT2” and the “Effect on FFN206 uptake / vesicular loading” value is given as “did not show impairment of vesicular loading”.

Source of the values: paper PMC8131219 (Chemical research in toxicology, 2020).
